The subject of assay [1] is rat small-intestinal brush border membrane vesicles. Description: Inhibitory effect on 33PO4 uptake into rat small-intestinal brush border membrane vesicles (rapid filtration method). The assay is classed as biochemical. Particulars: 33PO4 uptake into rat small-intestinal BBMVs; test compound 1 µM; reacted for 60 seconds. The gist of the method: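 Uptake of ^33PO4 was measured by rapid filtration and liquid scintillation counting of filter-retained vesicles, after quenching with ice-cold 110 mM NaCl/1 mM KH2PO4/10 mM HEPES pH 7.5. Vesicles were brush border membranes from the upper small intestine of female Wistar rats aged 4–5 weeks.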

In assay [2] the test system is adenine-induced renal failure rat. Nature of the assay: Suppressive effect on rise in serum phosphorus concentration of adenine-induced renal failure rat (0.1% in feed, 3 days). The assay is classed as in vivo. Particulars: feed or water, 72 h, adenine-induced renal failure Wistar male rat, test compound 0.1% of mass concentration in feed for 3 days, Fiske-Subbarow method, read-out: rate (%) of suppression of a rise in serum phosphorus concentration. From the text:
Adenine was forcedly administered orally to each Wistar male rat (7-8 weeks old) to impair renal functions and thereby prepare a hyperphosphatemia model ([…], Nagano N, Burke SK, Fukushima N. Sevelamer hydrochloride prevents ectopic calcification and renal osteodystrophy in chronic renal failure rats. Kidney Int. 2003 Aug; 64 (2): 441-50). Each test compound was mixed at a ratio of 0.1% of mass concentration with feed. The animal was fed with a given amount of the feed for 3 days. A group given feed non-supplemented with a test compound was used as a reference pathological group, and an adenine-unadministered group given feed non-supplemented with a test compound was used as a normal group. 3 days after the start of administration of the test compound, blood was collected from the jugular vein, and serum was collected. Serum phosphorus concentrations were measured by the Fiske-Subbarow method. The rate of suppression of a rise in serum phosphorus concentration was determined according to the following expression: Rate (%) of suppression of a rise in serum phosphorus concentration = (1-[(Serum phosphorus concentration of the test compound-treated pathological group)-(Serum phosphorus concentration of the normal group)]/[(Serum phosphorus concentration of the reference pathological group)-(Serum phosphorus concentration of the normal group)]) × 100 [formula] As a result, each test compound was confirmed to have a suppressive effect on a rise in serum phosphorus concentration. […]

The source of these data is patent EP3928779A1 (Chugai Seiyaku Kabushiki Kaisha, priority 2014, dated 2016).

Take `C[C@]12CCCN1N(Cc1ccc(C#CCN3CCOCC3)c(F)c1F)C(=O)C(C(=O)Nc1ccc(C(F)(F)F)cc1-c1ccc(C(F)(F)F)nc1)=C2O` [Example 140, (4aR)-1-[[2,3-Difluoro-4-(3-morpholin-4-ylprop-1-ynyl)phenyl]methyl]-4-hydroxy-4a-methyl-2-oxo-N-[4-(trifluoromethyl)-2-[6-(trifluoromethyl)pyridin-3-yl]phenyl]-6,7-dihydro-5H-pyrrolo[1,2-b]pyridazine-3-carboxamide]: in assay [1], the “Rate of uptake inhibition (%) (1 µM)” value amounted to 77%. Also, the inhibition in vivo at 0.1 % in feed in assay [2] turned out to be 39%.
The corresponding values for `COC[C@@H]1CCCN1CCOc1ccc(CN2C(=O)C(C(=O)Nc3ccc(C(F)(F)F)cc3-c3cc(C(F)(F)F)ncn3)=C(O)C3(CCC3)N2C)c(F)c1F` [Example 345, 6-[[2,3-Difluoro-4-[2-[(2S)-2-(methoxymethyl)pyrrolidin-1-yl]ethoxy]phenyl]methyl]-9-hydroxy-5-methyl-7-oxo-N-[4-(trifluoromethyl)-2-[6-(trifluoromethyl)pyrimidin-4-yl]phenyl]-5,6-diazaspiro[3.5]non-8-ene-8-carboxamide] are 73% and 19%.
On to `CSc1ccc(-c2cc(Cl)ccc2NC(=O)C2=C(O)[C@H](C(C)(C)C)N(C)N(Cc3ccc(OCCN4CCOCC4)c(F)c3F)C2=O)cn1` [Example 269, (3S)-3-tert-Butyl-N-[4-chloro-2-(6-methylsulfanylpyridin-3-yl)phenyl]-1-[[2,3-difluoro-4-(2-morpholin-4-ylethoxy)phenyl]methyl]-4-hydroxy-2-methyl-6-oxo-3H-pyridazine-5-carboxamide], for which the “Rate of uptake inhibition (%) (1 µM)” value in assay [1] came to 80%. Also, the inhibition in vivo at 0.1 % in feed in assay [2] was found to be 15%.
For `CN1[C@@H](C(C)(C)C)C(O)=C(C(=O)Nc2ccc(Cl)cc2-c2ccc(C(F)(F)F)nc2)C(=O)N1Cc1ccc(OCCN2CCOCC2)c(F)c1F` [Example 267, (3S)-3-tert-Butyl-N-[4-chloro-2-[6-(trifluoromethyl)pyridin-3-yl]phenyl]-1-[[2,3-difluoro-4-(2-morpholin-4-ylethoxy)phenyl]methyl]-4-hydroxy-2-methyl-6-oxo-3H-pyridazine-5-carboxamide] the same measures were 71% and 18%.
`C[C@]12CCCN1N(Cc1ccc(C#CCCCC(=O)O)c(F)c1F)C(=O)C(C(=O)Nc1ccc(C(F)(F)F)cc1-c1cc(C(F)(F)F)ncn1)=C2O` [Example 129, 6-[4-[[(4aR)-4-Hydroxy-4a-methyl-2-oxo-3-[[4-(trifluoromethyl)-2-[6-(trifluoromethyl)pyrimidin-4-yl]phenyl]carbamoyl]-6,7-dihydro-5H-pyrrolo[1,2-b]pyridazin-1-yl]methyl]-2,3-difluorophenyl]hex-5-ynoic acid]: the “Rate of uptake inhibition (%) (1 µM)” value in assay [1] turned out to be 63%. The inhibition in vivo at 0.1 % in feed in assay [2] amounted to 17%.
The corresponding values for `Cc1c(C#N)ncnc1-c1cc(C(F)(F)F)ccc1NC(=O)C1=C(O)[C@H](C(C)(C)C)N(C)N(Cc2ccc(OCCN3CCOCC3)c(F)c2F)C1=O` [Example 270, (3S)-3-tert-Butyl-N-[2-(6-cyano-5-methylpyrimidin-4-yl)-4-(trifluoromethyl)phenyl]-1-[[2,3-difluoro-4-(2-morpholin-4-ylethoxy)phenyl]methyl]-4-hydroxy-2-methyl-6-oxo-3H-pyridazine-5-carboxamide] are 75% and 20%.
As for `C[C@]12CCCN1N(Cc1cccc(Cl)c1F)C(=O)C(C(=O)Nc1cc(F)c(Br)c(F)c1)=C2O` [Example 196, (4aR)-N-(4-Bromo-3,5-difluorophenyl)-1-[(3-chloro-2-fluorophenyl)methyl]-4-hydroxy-4a-methyl-2-oxo-6,7-dihydro-5H-pyrrolo[1,2-b]pyridazine-3-carboxamide], the “Rate of uptake inhibition (%) (1 µM)” value in assay [1] is 90%. Further, the inhibition in vivo at 0.1 % in feed in assay [2] stood at 35%.
On to `C[C@]12CCCN1N(Cc1ccc(CN3CCOCC3)c(F)c1F)C(=O)C(C(=O)Nc1ccc(C(F)(F)F)cc1-c1ccc(C(F)(F)F)nc1)=C2O.Cl` [Example 164, (4aR)-1-[[2,3-Difluoro-4-(morpholin-4-ylmethyl)phenyl]methyl]-4-hydroxy-4a-methyl-2-oxo-N-[4-(trifluoromethyl)-2-[6-(trifluoromethyl)pyridin-3-yl]phenyl]-6,7-dihydro-5H-pyrrolo[1,2-b]pyridazine-3-carboxamide; hydrochloride], for which, in assay [1], the “Rate of uptake inhibition (%) (1 µM)” value is given as 64%. Moreover, the inhibition in vivo at 0.1 % in feed in assay [2] stood at 14%.
For `C[C@]12CCCN1N(Cc1ccc(OCCCCOC[C@H](O)CO)c(F)c1F)C(=O)C(C(=O)Nc1ccc(C(F)(F)F)cc1-c1cc(C(F)(F)F)ncn1)=C2O` [Example 152, (4aR)-1-[[4-[4-[(2R)-2,3-Dihydroxypropoxy]butoxy]-2,3-difluorophenyl]methyl]-4-hydroxy-4a-methyl-2-oxo-N-[4-(trifluoromethyl)-2-[6-(trifluoromethyl)pyrimidin-4-yl]phenyl]-6,7-dihydro-5H-pyrrolo[1,2-b]pyridazine-3-carboxamide] the same measures were 54% and 26%.
As to `CN1[C@@H](C(C)(C)C)C(O)=C(C(=O)Nc2ccc(C(F)(F)F)cc2-c2cc(C(F)(F)F)ncn2)C(=O)N1Cc1ccc(OCCN2CCOCC2)c(F)c1F` [Example 264, (3S)-3-tert-Butyl-1-[[2,3-difluoro-4-(2-morpholin-4-ylethoxy)phenyl]methyl]-4-hydroxy-2-methyl-6-oxo-N-[4-(trifluoromethyl)-2-[6-(trifluoromethyl)pyrimidin-4-yl]phenyl]-3H-pyridazine-5-carboxamide], in assay [1], the “Rate of uptake inhibition (%) (1 µM)” value was 48%. Moreover, the inhibition in vivo at 0.1 % in feed in assay [2] turned out to be 15%.
For `C[C@]12CCCN1N(Cc1ccc(OCCCCCCOC[C@H](O)CO)c(F)c1F)C(=O)C(C(=O)Nc1cnc(C(F)(F)F)nc1-c1ccc(C(F)(F)F)nc1)=C2O` [Example 156, (4aR)-1-[[4-[6-[(2R)-2,3-Dihydroxypropoxy]hexoxy]-2,3-difluorophenyl]methyl]-4-hydroxy-4a-methyl-2-oxo-N-[2-(trifluoromethyl)-4-[6-(trifluoromethyl)pyridin-3-yl]pyrimidin-5-yl]-6,7-dihydro-5H-pyrrolo[1,2-b]pyridazine-3-carboxamide] the same measures were 59% and 21%.
For `C[C@]12CCCN1N(Cc1ccc(OCCCOC[C@H](O)CO)c(F)c1F)C(=O)C(C(=O)Nc1ccc(C(F)(F)F)cc1-c1ccc(C(F)(F)F)nc1)=C2O` [Example 147, (4aR)-1-[[4-[3-[(2R)-2,3-Dihydroxypropoxy]propoxy]-2,3-difluorophenyl]methyl]-4-hydroxy-4a-methyl-2-oxo-N-[4-(trifluoromethyl)-2-[6-(trifluoromethyl)pyridin-3-yl]phenyl]-6,7-dihydro-5H-pyrrolo[1,2-b]pyridazine-3-carboxamide], the “Rate of uptake inhibition (%) (1 µM)” value in assay [1] is reported as 57%. The inhibition in vivo at 0.1 % in feed in assay [2] was 35%.
The corresponding values for `CN1N(Cc2ccc(OCCCCC(=O)O)c(F)c2F)C(=O)C(C(=O)Nc2ccc(C(F)(F)F)cc2-c2cc(C(F)(F)F)ncn2)=C(O)C12CCCC2` [Example 333, 5-[2,3-Difluoro-4-[[10-hydroxy-6-methyl-8-oxo-9-[[4-(trifluoromethyl)-2-[6-(trifluoromethyl)pyrimidin-4-yl]phenyl]carbamoyl]-6,7-diazaspiro[4.5]dec-9-en-7-yl]methyl]phenoxy]pentanoic acid] are 29% and 8%.
For the compound `CN1N(Cc2ccc(OCCN3CCOCC3)c(F)c2F)C(=O)C(C(=O)Nc2ccc(C(F)(F)F)cc2-c2cc(C(F)(F)F)ncn2)=C(O)C12CCC2` [Example 317, 6-[[2,3-Difluoro-4-(2-morpholin-4-ylethoxy)phenyl]methyl]-9-hydroxy-5-methyl-7-oxo-N-[4-(trifluoromethyl)-2-[6-(trifluoromethyl)pyrimidin-4-yl]phenyl]-5,6-diazaspiro[3.5]non-8-ene-8-carboxamide], the “Rate of uptake inhibition (%) (1 µM)” value in assay [1] is 57%. In assay [2], the inhibition in vivo at 0.1 % in feed was 22%.
`C[C@]12CCCN1N(Cc1ccc(OCCN3CCOCC3)c(F)c1F)C(=O)C(C(=O)Nc1ccc(C(F)(F)F)cc1-c1cc(C(F)(F)F)ncn1)=C2O` [Example 157, (4aR)-1-[[2,3-Difluoro-4-(2-morpholin-4-ylethoxy)phenyl]methyl]-4-hydroxy-4a-methyl-2-oxo-N-[4-(trifluoromethyl)-2-[6-(trifluoromethyl)pyrimidin-4-yl]phenyl]-6,7-dihydro-5H-pyrrolo[1,2-b]pyridazine-3-carboxamide]: in assay [1], the “Rate of uptake inhibition (%) (1 µM)” value came out at 89%. Also, the inhibition in vivo at 0.1 % in feed in assay [2] is 30%.
